Measured values: patent US11236087B2, “Highly active pyrazolo-piperidine substituted indole-2-carboxamides active against the hepatitis B virus (HBV)” (AiCuris GmbH & Co. KG, priority 2017, dated 2022)
Read-outs that look alike come from different tables or passages of the source.

Legend:
HBV = test: Determination of HBV DNA from the supernatants of HepAD38 cells (anti-HBV activity); assay type: cell-based, hepatitis B virus; conditions: read-out: Cell Activity (EC50)
Procedure, shortened: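 HepAD38 cells, tetracycline withdrawn to induce HBV, treated with serial half-log compound dilutions; on day 6 HBV DNA purified from filtered supernatant and quantified by real-time PCR against HBV plasmid standards; EC50 from relative copy numbers by non-linear regression, three experiments in triplicate.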

HepAD38 cells = test: Cell viability assay (AlamarBlue) in HepAD38 cells; conditions: HepAD38 cells with 0.3 μg/ml tetracycline, six days incubation, AlamarBlue
HBV core protein = target: T1, HBV core protein (UniProt P03146); test: Biochemical capsid assembly assay (fluorescence quenching); design: species or system hepatitis B virus
T1 construct: fused on or other part: BODIPY-FL maleimide label on the C-terminal Cys150
Procedure, shortened: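 Purified E. coli-expressed HBV core protein (aa 1-149 plus Cys150), BODIPY-FL maleimide-labelled, at 1.0-2.0 μM in 50 mM HEPES pH 7.5 with 0.5% DMSO was used. Compounds were tested at 8 concentrations (0.5-log dilutions from 100, 31.6 or 10 μM). Assembly was started with NaCl ([…]), and fluorescence quenching was read after 6 min (ex 477/em 525 nm). EC50 was determined by non-linear regression.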

[1] = Cell viability assay (AlamarBlue) in HepAD38 cells; conditions: human
[2] = HBV DNA in HepAD38 supernatant, day 6, qPCR
[3] = BODIPY-FL labelled core protein, 300 μM NaCl, read 6 min after start; read-out: Assembly Activity (IC50)
[4] = Hepatitis B virus, 144 h, HBV DNA in HepAD38 supernatant, day 6, qPCR
[5] = read-out: Assembly Activity (IC50); BODIPY-FL labelled core protein, 300 μM NaCl, read 6 min after start

T1 sequence (P03146 whole entry, looked up, the tested form may be a part): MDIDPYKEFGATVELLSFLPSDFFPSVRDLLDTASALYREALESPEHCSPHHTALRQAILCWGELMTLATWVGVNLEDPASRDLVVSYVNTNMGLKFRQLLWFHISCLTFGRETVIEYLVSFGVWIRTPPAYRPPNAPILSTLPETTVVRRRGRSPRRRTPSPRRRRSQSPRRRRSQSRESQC

Compound | EC50 (HBV; [2]) [µM] | CC50 (HepAD38 cells) [µM] | IC50 (HBV core protein; [3]) [µM] | EC50 (HBV; [4]) [µM] | CC50 at 6 days [1] [µM] | IC50 (HBV core protein; [5]) [µM] | EC50 (HBV; Hepatitis B virus, HePAD38, 144 h) [µM]
5-(4-chloro-5-fluoro-1H-indole-2-carbonyl)-N-[1-(methoxymethyl)cyclopropyl]-N-methyl-1H,4H,5H,6H,7H-pyrazolo[4,3-c]pyridine-3-carboxamide [Example 268] | < 1 | > 10 | < 5 | – | – | – | –
tert-butyl N-(2-{1-[5-(1H-indole-2-carbonyl)-2H,4H,5H,6H,7H-pyrazolo[4,3-c]pyridin-3-yl]-N-methylformamido}ethyl)carbamate [Example 281] | 1 to 25 | > 10 | < 100 | – | – | – | –
3-{1-[5-(1H-indole-2-carbonyl)-2H,4H,5H,6H,7H-pyrazolo[4,3-c]pyridin-3-yl]-N-methylformamido}-N-methanesulfonylpropanamide [Example 244] | < 100 | > 10 | – | – | – | – | –
CN(C(=O)c1n[nH]c2c1CN(C(=O)c1cc3ccccc3[nH]1)CC2)C1(c2ccccn2)CC1 [Example 311, 5-(1H-indole-2-carbonyl)-N-methyl-N-[1-(pyridin-2-yl)cyclopropyl]-1H,4H,5H,6H,7H-pyrazolo[4,3-c]pyridine-3-carboxamide] | – | – | – | < 1 | > 10 | < 5 | –
CNC(=O)c1n[nH]c2c1CN(C(=O)c1cc3ccccc3[nH]1)CC2 [Example 285, 5-(1H-indole-2-carbonyl)-N-methyl-1H,4H,5H,6H,7H-pyrazolo[4,3-c]pyridine-3-carboxamide] | – | – | – | 1 to 25 | > 10 | < 100 | –
O=C(c1cc2ccccc2[nH]1)N1CCc2[nH]nc(C(=O)N3CCCO3)c2C1 [Example 133, 2-[3-(1,2-oxazolidine-2-carbonyl)-1H,4H,5H,6H,7H-pyrazolo[4,3-c]pyridine-5-carbonyl]-1H-indole] | – | – | – | < 100 | > 100 | < 5 | –
CCc1cccc2[nH]c(C(=O)N3CCc4[nH]nc(C(=O)N(C)C5(COC)CC5)c4C3)cc12 [Example 270, 5-(4-ethyl-1H-indole-2-carbonyl)-N-[1-(methoxymethyl)cyclopropyl]-N-methyl-1H,4H,5H,6H,7H-pyrazolo[4,3-c]pyridine-3-carboxamide] | – | – | – | < 1 | > 10 | < 5 | –
CS(=O)(=O)CCNC(=O)c1n[nH]c2c1CN(C(=O)c1cc3ccccc3[nH]1)CC2 [Example 101, 5-(1H-indole-2-carbonyl)-N-(2-methanesulfonylethyl)-1H,4H,5H,6H7H-pyrazolo[4,3-c]pyridine-3-carboxamide] | – | – | – | < 100 | > 100 | < 100 | –
Cc1cc(F)cc2[nH]c(C(=O)N3CCc4[nH]nc(C5CCCO5)c4C3)cc12 (centres unmarked) [Example 342, 6-fluoro-4-methyl-2-[3-(oxolan-2-yl)-1H,4H,5H,6H,7H-pyrazolo[4,3-c]pyridine-5-carbonyl]-1H-indole] | – | – | – | < 1 | > 10 | < 5 | –
CON(C)C(=O)c1n[nH]c2c1CN(C(=O)c1cc3c(Cl)cc(F)cc3[nH]1)CC2 [Example 126, 5-(4-chloro-6-fluoro-1H-indole-2-carbonyl)-N-methoxy-N-methyl-1H,4H,5H,6H,7H-pyrazolo[4,3-c]pyridine-3-carboxamide] | – | – | – | < 1 | > 32 | < 5 | –
COCC1(N(C)C(=O)c2n[nH]c3c2CN(C(=O)c2cc4c(F)cc(Cl)cc4[nH]2)CC3)CC1 [Example 305, 5-(6-chloro-4-fluoro-1H-indole-2-carbonyl)-N-[1-(methoxymethyl)cyclopropyl]-N-methyl-1H,4H,5H,6H,7H-pyrazolo[4,3-c]pyridine-3-carboxamide] | – | – | – | < 1 | > 10 | < 5 | –
COC1CCN(C(=O)c2n[nH]c3c2CN(C(=O)c2cc4ccccc4[nH]2)CC3)CC1 [Example 160, 2-[3-(4-methoxypiperidine-1-carbonyl)-1H,4H,5H,6H,7H-pyrazolo[4,3-c]pyridine-5-carbonyl]-1H-indole] | – | – | – | < 1 | > 10 | < 100 | –
O=C(c1cc2c(F)cc(F)cc2[nH]1)N1CCc2[nH]nc(C34CC(C3)C4)c2C1 [Example 333, 2-(3-{bicyclo[1.1.1]pentan-1-yl}-1H,4H,5H,6H,7H-pyrazolo[4,3-c]pyridine-5-carbonyl)-4,6-difluoro-1H-indole] | – | – | – | < 1 | > 10 | < 5 | –
COCC1(N(C)C(=O)c2n[nH]c3c2CN(C(=O)c2cc4cc(F)cc(F)c4[nH]2)CC3)CC1 [Example 309, 5-(5,7-difluoro-1H-indole-2-carbonyl)-N-[1-(methoxymethyl)cyclopropyl]-N-methyl-1H,4H,5H,6H,7H-pyrazolo[4,3-c]pyridine-3-carboxamide] | – | – | – | < 1 | > 10 | < 5 | –
CN(C(=O)c1n[nH]c2c1CN(C(=O)c1cc3ccccc3[nH]1)CC2)C1(COCC(F)F)CC1 [Example 360, N-{1-[(2,2-difluoroethoxy)methyl]cyclopropyl}-5-(1H-indole-2-carbonyl)-N-methyl-1H,4H,5H,6H,7H-pyrazolo[4,3-c]pyridine-3-carboxamide] | – | – | – | < 1 | > 10 | < 5 | –
CON(C)C(=O)c1n[nH]c2c1CN(C(=O)c1cc3c(F)ccc(F)c3[nH]1)CC2 [Example 125, 5-(4,7-difluoro-1H-indole-2-carbonyl)-N-methoxy-N-methyl-1H,4H,5H,6H,7H-pyrazolo[4,3-c]pyridine-3-carboxamide] | – | – | – | < 1 | > 100 | < 5 | –
O=C(c1cc2ccccc2[nH]1)N1CCc2[nH]nc(C(=O)N3C[C@@H]4[C@@H](CO)[C@@H]4C3)c2C1 [Example 175, [(±)-3-[5-(1H-indole-2-carbonyl)-1H,4H,5H,6H,7H-pyrazolo[4,3-c]pyridine-3-carbonyl]-3-azabicyclo[3.1.0]hexan-6-yl]methanol] | – | – | – | 1 to 25 | > 10 | 5 to 10 | –
CN(C(=O)c1[nH]nc2c1CN(C(=O)c1cc3ccccc3[nH]1)CC2)C1(c2cocn2)CC1 [Example 368, 5-(1H-indole-2-carbonyl)-N-methyl-N-[1-(1,3-oxazol-4-yl)cyclopropyl]-2H,4H,5H,6H,7H-pyrazolo[4,3-c]pyridine-3-carboxamide] | – | – | – | < 1 | > 10 | < 5 | –
Cc1cccc2[nH]c(C(=O)N3CCc4[nH]nc(C(=O)N(C)OCCOP(=O)(N[C@@H](C)C(=O)OC(C)C)Oc5ccccc5)c4C3)cc12 (stereo partly drawn) [Example 55, propan-2-yl (2S)-2-({[2-({N-methyl-1-[5-(4-methyl-1H-indole-2-carbonyl)-1H,4H,5H,6H,7H-pyrazolo[4,3-c]pyridin-3-yl]formamido}oxy)ethoxy](phenoxy)phosphoryl}amino)propanoate] | – | – | – | – | > 32 | < 5 | < 1
COCC1(N(CC(F)(F)F)C(=O)c2n[nH]c3c2CN(C(=O)c2cc4ccccc4[nH]2)CC3)CC1 [Example 313, 5-(1H-indole-2-carbonyl)-N-[1-(methoxymethyl)cyclopropyl]-N-(2,2,2-trifluoroethyl)-1H,4H,5H,6H,7H-pyrazolo[4,3-c]pyridine-3-carboxamide] | – | – | – | < 1 | > 10 | < 5 | –
CN(CCO)C(=O)c1n[nH]c2c1CN(C(=O)c1cc3c(F)ccc(F)c3[nH]1)CC2 [Example 53, 5-(4,7-difluoro-1H-indole-2-carbonyl)-N-(2-hydroxyethyl)-N-methyl-1H,4H,5H,6H,7H-pyrazolo[4,3-c]pyridine-3-carboxamide] | – | – | – | < 1 | > 100 | < 5 | –
COCC1(N(C)C(=O)c2n[nH]c3c2CN(C(=O)c2cc4cc(F)ccc4[nH]2)CC3)CC1 [Example 204, 5-(5-fluoro-1H-indole-2-carbonyl)-N-[1-(methoxymethyl)cyclopropyl]-N-methyl-1H,4H,5H,6H,7H-pyrazolo[4,3-c]pyridine-3-carboxamide] | – | – | – | < 1 | > 10 | < 5 | –
O=C(c1cc2c(C(F)(F)F)cccc2[nH]1)N1CCc2n[nH]c(-c3cscn3)c2C1 [Example 21, 2-[3-(1,3-thiazol-4-yl)-2H,4H,5H,6H,7H-pyrazolo[4,3-c]pyridine-5-carbonyl]-4-(trifluoromethyl)-1H-indole] | – | – | – | < 1 | > 10 | < 100 | –
CN(C(=O)c1[nH]nc2c1CN(C(=O)c1cc3c(Cl)cccc3[nH]1)CC2)C1CC1 [Example 326, 5-(4-chloro-1H-indole-2-carbonyl)-N-cyclopropyl-N-methyl-2H,4H,5H,6H,7H-pyrazolo[4,3-c]pyridine-3-carboxamide] | – | – | – | < 1 | > 10 | < 5 | –
CS(=O)(=O)c1n[nH]c2c1CN(C(=O)c1cc3ccccc3[nH]1)CC2 [Example 211, 2-{3-methanesulfonyl-1H,4H,5H,6H,7H-pyrazolo[4,3-c]pyridine-5-carbonyl}-1H-indole] | – | – | – | < 1 | > 10 | < 5 | –
